US8735425B2, “Tetrahydroisoquinoline derivative” (Daiichi Sankyo Company, Limited, priority 2008, dated 2014)

What was measured:
Male C57BL/6N mice = assay: Triglyceride absorption suppression after fat loading (in vivo DGAT1 inhibitory effect); conditions: Mus musculus, po; dose of 10 mg/kg or lower, orally administered, mice fasted overnight, plasma triglyceride after fat loading; read-out: Triglyceride absorption suppressive activity
Protocol: The DGAT1 enzyme is important for the digestion and absorption of triglycerides, and the inhibition of DGAT1 in the small intestine suppresses the absorption of triglycerides. The in vivo activity of its DGAT1 inhibitory effect was evaluated with the suppressed absorption of triglycerides after fat loading as an index. Male C57BL/6N mice (7-12 weeks old, body weight: 17-25 g, Charles River Laboratories Japan Inc.) fasted overnight were assigned to Vehicle group 1, Vehicle group 2, and each test compound group, to which a vehicle (0.5% methylcellulose) or each test compound (1 to 10 mg/kg) suspended in vehicle was orally administered (5 mL/kg). After a given time, a lipoprotein lipase inhibitor (Pluronic-F127: Sigma-Aldrich Corp., 1 g/kg, 20% by weight dissolved in saline) was intraperitoneally administered (5 mL/kg) to each group. Immediately thereafter, distilled water for the Vehicle group 1 or a 20% fat-containing emulation (Intralipid 20%: TERUMO CORP., Japan) for the Vehicle group 2 and the compound groups were orally administered thereto (0.2 mL/mouse). After a given time of 1 to 4 hours after administration, blood was collected from the tail vein or the right ventricle, and plasma was immediately separated and collected. Then, the triglyceride concentration in plasma was measured using a commercially available kit (Triglyceride E-Test Wako: Wako Pure Chemical Industries, Ltd.). In this method, the administration of the lipoprotein lipase inhibitor suppresses the hydrolysis of triglycerides in the blood such that the triglycerides are accumulated in the blood. These triglycerides are derived from two origins: exogenous triglycerides absorbed in the gastrointestinal tract and endogenous triglycerides released from the liver. The triglyceride absorption suppressive activity of each test compound was calculated based on the equation shown below by removing the influence of the endogenous triglycerides. In this context, each test compound was separately confirmed to have no influence on the concentration of the endogenous triglycerides.
Triglyceride absorption suppressive activity (%)=100−[(Triglyceride concentration of each test compound group)−(Triglyceride concentration of Vehicle group 1)]/[(Triglyceride concentration of Vehicle group 2)−(Triglyceride concentration of Vehicle group 1)]×100

DGAT1 enzyme = molecular target: T1, DGAT1 enzyme (Homo sapiens, UniProt O75907); assay: DGAT1 inhibitory activity test; assay type: biochemical; conditions: test compound concentration of 0.05 μg/ml; read-out: Inhibitory Rate
T1 construct: made in house
T1 sequence (O75907 1-488): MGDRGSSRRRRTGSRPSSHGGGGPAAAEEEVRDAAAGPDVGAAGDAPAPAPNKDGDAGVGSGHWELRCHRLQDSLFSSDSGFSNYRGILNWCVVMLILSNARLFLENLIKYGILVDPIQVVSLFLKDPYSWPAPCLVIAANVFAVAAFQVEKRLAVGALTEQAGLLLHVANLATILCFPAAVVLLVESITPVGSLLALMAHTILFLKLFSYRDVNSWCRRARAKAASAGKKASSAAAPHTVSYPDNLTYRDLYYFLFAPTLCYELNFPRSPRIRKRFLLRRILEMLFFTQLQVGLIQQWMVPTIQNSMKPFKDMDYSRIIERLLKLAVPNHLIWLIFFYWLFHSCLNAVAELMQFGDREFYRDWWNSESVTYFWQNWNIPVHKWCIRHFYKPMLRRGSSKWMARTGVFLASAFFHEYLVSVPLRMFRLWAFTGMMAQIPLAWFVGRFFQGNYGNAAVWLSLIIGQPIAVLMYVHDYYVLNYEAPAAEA
Protocol: DGAT1 enzyme was prepared and stored according to the method described in US2007/0249620.
(2) DGAT1 Inhibitory Activity Test
A reaction solution having the following composition was incubated at room temperature (23° C.) for 30 minutes: 175 mM Tris-HCl (pH 8.0), 8 mM MgCl2, 1 mg/ml BSA, 0.3 mM 1,2-dioleoyl-sn-glycerol (10-fold concentration of EtOH solution, 10% added), 10 μM [^14C]-oleoyl-CoA (approximately 50 mCi/mmol), 0.5% Triton X-100, the DGAT1 enzyme (10 μg) obtained in Test Example 1(1), and a test compound or vehicle (DMSO/MeOH, 7:3 solution, 5% added), […] in total. A reaction stop solution ([…] consisting of isopropanol/1-heptane/water (80:20:2, v/v/v) was added to the reaction solution and stirred. Subsequently, water (30 μl) and 1-heptane (100 μl) were added thereto and stirred. The 1-heptane layer (50 μl) was spotted onto a TLC plate and developed with a developing solvent consisting of 1-hexane/diethyl ether/acetic acid (85:15:1, v/v/v). The radioactivity of the triglyceride fraction was quantified using BAS2000 Bio Image Analyzer (FUJIFILM) and compared with the control. The inhibitory activity of the test compound was calculated according to the formula shown below. In this context, the radioactivity at no reaction (0 minute incubation) was used as background. Inhibitory Rate=100−[(Radioactivity of sample supplemented with test compound)−(Background)]/[(Radioactivity of control)−(Background)]×100

Q: CC(C)(C)c1cccc(NC(=O)Nc2ccc3c(c2)CCN(C(=O)O[C@H]2CC[C@H](CC(=O)O)CC2)C3)c1 [Example 76, trans-6-[3-(3-tert-butyl-phenyl)-ureido]-3,4-dihydro-1H-isoquinoline-2-carboxylic acid 4-carboxymethyl-cyclohexyl ester] was tested. Which inhibition in vivo at up to 10 mg/kg (Male C57BL/6N mice) did it give?
A: ≥ 60%

Q: What about the inhibition at 0.05 µg/mL (DGAT1 enzyme) of the same compound?
A: ≥ 50%

Q: What does the source list for CCOc1ccc(F)c(NC(=O)Nc2ccc3c(c2)CCN(C(=O)O[C@H]2CC[C@H](CC(=O)O)CC2)C3)c1 [Example 61, trans-6-[3-(5-ethoxy-2-fluoro-phenyl)-ureido]-3,4-dihydro-1H-isoquinoline-2-carboxylic acid 4-carboxymethyl-cyclohexyl ester]?
A: inhibition in vivo at up to 10 mg/kg (Male C57BL/6N mice): ≥ 60%; inhibition at 0.05 µg/mL (DGAT1 enzyme): ≥ 50%

Q: For COc1cccc(NC(=O)Nc2ccc3c(c2)CCN(C(=O)O[C@@H]2CC[C@@H](CC(=O)O)C[C@H]2C)C3)c1 (relative stereo) [Example 101, 6-[3-(3-methoxy-phenyl)-ureido]-3,4-dihydro-1H-isoquinoline-2-carboxylic acid t-4-carboxymethyl-t-2-methyl-r-1-cyclohexyl ester], which inhibition in vivo at up to 10 mg/kg (Male C57BL/6N mice) is on record?
A: ≥ 60%

Q: And the inhibition at 0.05 µg/mL (DGAT1 enzyme)?
A: ≥ 50%

Q: How did the inhibition in vivo at up to 10 mg/kg (Male C57BL/6N mice) turn out when COc1cccc(NC(=O)Nc2ccc3c(c2)CCN(C(=O)O[C@H]2CC[C@H](CC(=O)O)CC2)C3)c1 [Example 49, trans-6-[3-(3-methoxy-phenyl)-ureido]-3,4-dihydro-1H-isoquinoline-2-carboxylic acid 4-carboxymethyl-cyclohexyl ester] was run?
A: ≥ 60%

Q: What about the inhibition at 0.05 µg/mL (DGAT1 enzyme) of the same compound?
A: ≥ 50%

Q: Cc1cc(NC(=O)Nc2ccc3c(c2)CCN(C(=O)O[C@H]2CC[C@H](CC(=O)O)CC2)C3)no1 [Example 97, trans-6-[3-(5-methyl-isoxazol-3-yl)-ureido]-3,4-dihydro-1H-isoquinoline-2-carboxylic acid 4-carboxymethyl-cyclohexyl ester] was tested. Which inhibition in vivo at up to 10 mg/kg (Male C57BL/6N mice) did it give?
A: ≥ 60%

Q: And the inhibition at 0.05 µg/mL (DGAT1 enzyme)?
A: ≥ 50%

Q: Which inhibition in vivo at up to 10 mg/kg (Male C57BL/6N mice) does the source give for COc1cc(NC(=O)Nc2ccc3c(c2)CCN(C(=O)O[C@H]2CC[C@H](CC(=O)O)CC2)C3)ccc1F [Example 58, trans-6-[3-(4-fluoro-3-methoxy-phenyl)-ureido]-3,4-dihydro-1H-isoquinoline-2-carboxylic acid 4-carboxymethyl-cyclohexyl ester] here?
A: ≥ 60%

Q: And the inhibition at 0.05 µg/mL (DGAT1 enzyme)?
A: ≥ 50%

Q: With O=C(O)CCC1CCC(OC(=O)N2CCc3cc(NC(=O)Nc4ccccc4F)ccc3C2)CC1 (stereo not drawn) [Example 10, 6-[3-(2-fluoro-phenyl)-ureido]-3,4-dihydro-1H-isoquinoline-2-carboxylic acid 4-(2-carboxy-ethyl)-cyclohexyl ester] as the compound, how does the inhibition in vivo at up to 10 mg/kg (Male C57BL/6N mice) read?
A: ≥ 60%

Q: What about the inhibition at 0.05 µg/mL (DGAT1 enzyme) of the same compound?
A: ≥ 50%

Q: For C[C@@H]1C[C@H](CC(=O)O)CC[C@H]1OC(=O)N1CCc2cc(NC(=O)Nc3ccccc3F)ccc2C1 (relative stereo) [Example 16, 6-[3-(2-fluoro-phenyl)-ureido]-3,4-dihydro-1H-isoquinoline-2-carboxylic acid t-4-carboxymethyl-t-2-methyl-r-1-cyclohexyl ester], which inhibition in vivo at up to 10 mg/kg (Male C57BL/6N mice) is on record?
A: ≥ 60%

Q: And the inhibition at 0.05 µg/mL (DGAT1 enzyme)?
A: ≥ 50%

Q: Cc1cncc(NC(=O)Nc2ccc3c(c2)CCN(C(=O)O[C@H]2CC[C@H](CC(=O)O)CC2)C3)c1 [Example 90, trans-6-[3-(5-methyl-pyridin-3-yl)-ureido]-3,4-dihydro-1H-isoquinoline-2-carboxylic acid 4-carboxymethyl-cyclohexyl ester] was tested. Which inhibition in vivo at up to 10 mg/kg (Male C57BL/6N mice) did it give?
A: ≥ 60%

Q: And the inhibition at 0.05 µg/mL (DGAT1 enzyme)?
A: ≥ 50%

Q: What does the source list for C[C@@H]1C[C@H](CC(=O)O)CC[C@H]1OC(=O)N1CCc2cc(NC(=O)Nc3cccc(OC(F)(F)F)c3)ccc2C1 [Example 102, 6-[3-(3-trifluoromethoxy-phenyl)-ureido]-3,4-dihydro-1H-isoquinoline-2-carboxylic acidt-4-carboxymethyl-t-2-methyl-r-1-cyclohexyl ester]?
A: inhibition in vivo at up to 10 mg/kg (Male C57BL/6N mice): ≥ 60%; inhibition at 0.05 µg/mL (DGAT1 enzyme): ≥ 50%

Q: What does the source list for COc1ccc(C)cc1NC(=O)Nc1ccc2c(c1)CCN(C(=O)O[C@H]1CC[C@H](CC(=O)O)CC1)C2 [Example 23, trans-6-[3-(2-methoxy-5-methyl-phenyl)-ureido]-3,4-dihydro-1H-isoquinoline-2-carboxylic acid 4-carboxymethyl-cyclohexyl ester]?
A: inhibition in vivo at up to 10 mg/kg (Male C57BL/6N mice): ≥ 60%; inhibition at 0.05 µg/mL (DGAT1 enzyme): ≥ 50%

Q: CCOc1ccc(C)c(NC(=O)Nc2ccc3c(c2)CCN(C(=O)O[C@H]2CC[C@H](CC(=O)O)CC2)C3)c1 [Example 55, trans-6-[3-(5-ethoxy-2-methyl-phenyl)-ureido]-3,4-dihydro-1H-isoquinoline-2-carboxylic acid 4-carboxymethyl-cyclohexyl ester] was tested. Which inhibition in vivo at up to 10 mg/kg (Male C57BL/6N mice) did it give?
A: ≥ 60%

Q: What about the inhibition at 0.05 µg/mL (DGAT1 enzyme) of the same compound?
A: ≥ 50%

Q: Which results are given for CC(C)c1ccc(NC(=O)Nc2ccc3c(c2)CCN(C(=O)O[C@H]2CC[C@H](CC(=O)O)CC2)C3)cc1 [Example 72, trans-6-[3-(4-isopropyl-phenyl)-ureido]-3,4-dihydro-1H-isoquinoline-2-carboxylic acid 4-carboxymethyl-cyclohexyl ester]?
A: inhibition in vivo at up to 10 mg/kg (Male C57BL/6N mice): ≥ 60%; inhibition at 0.05 µg/mL (DGAT1 enzyme): ≥ 50%

Q: O=C(O)C[C@H]1CC[C@H](OC(=O)N2CCc3cc(NC(=O)Nc4ccc(Cl)nc4)ccc3C2)CC1 [Example 92, trans-6-[3-(6-chloro-pyridin-3-yl)-ureido]-3,4-dihydro-1H-isoquinoline-2-carboxylic acid 4-carboxymethyl-cyclohexyl ester] was tested. Which inhibition in vivo at up to 10 mg/kg (Male C57BL/6N mice) did it give?
A: ≥ 60%

Q: What about the inhibition at 0.05 µg/mL (DGAT1 enzyme) of the same compound?
A: ≥ 50%

Q: How did the inhibition in vivo at up to 10 mg/kg (Male C57BL/6N mice) turn out when CC(C)(C)c1ccc(NC(=O)Nc2ccc3c(c2)CCN(C(=O)O[C@H]2CC[C@H](CC(=O)O)CC2)C3)cc1 [Example 73, trans-6-[3-(4-tert-butyl-phenyl)-ureido]-3,4-dihydro-1H-isoquinoline-2-carboxylic acid 4-carboxymethyl-cyclohexyl ester] was run?
A: ≥ 60%

Q: What about the inhibition at 0.05 µg/mL (DGAT1 enzyme) of the same compound?
A: ≥ 50%

Q: With COc1cc(F)cc(NC(=O)Nc2ccc3c(c2)CCN(C(=O)O[C@H]2CC[C@H](CC(=O)O)CC2)C3)c1 [Example 56, trans-6-[3-(3-fluoro-5-methoxy-phenyl)-ureido]-3,4-dihydro-1H-isoquinoline-2-carboxylic acid 4-carboxymethyl-cyclohexyl ester] as the compound, how does the inhibition in vivo at up to 10 mg/kg (Male C57BL/6N mice) read?
A: ≥ 60%

Q: And the inhibition at 0.05 µg/mL (DGAT1 enzyme)?
A: ≥ 50%

Q: How did the inhibition in vivo at up to 10 mg/kg (Male C57BL/6N mice) turn out when COc1ccc(F)cc1NC(=O)Nc1ccc2c(c1)CCN(C(=O)O[C@H]1CC[C@H](CC(=O)O)CC1)C2 [Example 22, trans-6-[3-(5-fluoro-2-methoxy-phenyl)-ureido]-3,4-dihydro-1H-isoquinoline-2-carboxylic acid 4-carboxymethyl-cyclohexyl ester] was run?
A: ≥ 60%

Q: What about the inhibition at 0.05 µg/mL (DGAT1 enzyme) of the same compound?
A: ≥ 50%

Q: Which results are given for O=C(Nc1ccc2c(c1)CCN(C(=O)O[C@H]1CC[C@H](Cc3cc(O)no3)CC1)C2)Nc1ccccc1F [Example 43, trans-6-[3-(2-fluoro-phenyl)-ureido]-3,4-dihydro-1H-isoquinoline-2-carboxylic acid 4-(3-hydroxy-isoxazol-5-ylmethyl)-cyclohexyl ester]?
A: inhibition in vivo at up to 10 mg/kg (Male C57BL/6N mice): ≥ 60%; inhibition at 0.05 µg/mL (DGAT1 enzyme): ≥ 50%
